Patent US20240092745A1, “DRUGS AND COMPOSITIONS FOR THE TREATMENT OF OCULAR DISORDERS” (Graybug Vision, Inc., priority 2017, published 2024)
≈ marks a conversion by molar mass, not a printed value. Where a name gives a salt, the structure may show the parent alone. Read-outs that look alike come from different tables or passages of the source.

Experiment: Determination of drug solubility in aqueous and organic solvent;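 note: solid drug suspended at 50 mg/mL nominal in each solvent, vortexed and sonicated, then dissolved concentration in filtered supernatant quantified by HPLC against a calibration curve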
Format: physicochemical
Details: for solubility: thermodynamic from solid
[1] = organic solvent or mixture, Table 3A, DMSO, read-out: Solubility DMSO
[2] = Table 3A, water, drug added to 50 mg/mL, read-out: Solubility Water
[3] = organic solvent or mixture, Table 3A, DCM, read-out: Solubility DCM
[4] = organic solvent or mixture, Table 3B, DMSO, read-out: Solubility DMSO
[5] = Table 3B, water, drug added to 50 mg/mL, read-out: Solubility Water

Description: For each test, approximately 5-10 mg was transferred to a 10 mL glass vial. Aqueous or organic solvent was added to each vial to achieve an overall concentration of 50 mg/mL. After vortexing aggressively for 2-3 minutes and sonicating in a bath sonicator for 5 minutes, undissolved drug was spun down at 1200 rpm for 5 minutes to generate a pellet. The supernatant was collected and filtered through a 0.2 μm nylon syringe filter into HPLC vials for drug content analysis. Drug concentration was determined by comparing against a standard calibration curve.

Row | solubility [1] | solubility [2] | Compound | also measured
1 | > 50000 µg/mL | < 1000 µg/mL | CCCCCCCCCCCCCCCCCC(=O)O[C@@H](C)C(=O)O[C@@H](C)C(=O)O[C@@H](C)C(=O)O[C@@H](C)C(=O)N1CCN=C1Nc1ccc2nccnc2c1Br [Compound 29-2, Octadecanoic acid (S)-1-[(S)-1-((S)-1-{(S)-2-[2-(5-bromo-quinoxalin-6-ylamino)-4,5-dihydro-imidazol-1-yl]-1-methyl-2-oxo-ethoxycarbonyl}-ethoxycarbonyl)-ethoxycarbonyl]-ethyl ester] | 
2 | > 50000 µg/mL | < 1000 µg/mL | CC(=O)O[C@@H](CNC(C)(C)C)COc1nsnc1N1CCOCC1.O=C(O)/C=C\C(=O)O [Compound 35-4, Acetic acid (S)-1-(tert-butylamino-methyl)-2-(4-morpholin-4-yl-[1,2,5]thiadiazol-3-yloxy)-ethyl ester maleate] | 
3 | > 50000 µg/mL | < 1000 µg/mL | CC(C)(C)NC[C@@H](COc1nsnc1N1CCOCC1)OC(=O)OC(C)(C)C [Compound 36-2, Carbonic acid tert-butyl ester (S)-1-(tert-butylamino-methyl)-2-(4-morpholin-4-yl-[1,2,5]thiadiazol-3-yloxy)-ethyl ester] | 
4 | > 50000 µg/mL | < 1000 µg/mL | CC(=O)N(C[C@@H](COc1nsnc1N1CCOCC1)OC(=O)OC(C)(C)C)C(C)(C)C [Compound 37-2, Timolol-O-Boc-N-acetate] | 
5 | > 50000 µg/mL | < 1000 µg/mL | CC(=O)O[C@H](C)C(=O)O[C@@H](CNC(C)(C)C)COc1nsnc1N1CCOCC1.O=C(O)/C=C\C(=O)O [Compound 44-2, Timolol-acetyl PLA (n=1) maleate] | 

Continued, compound first:

Row | Compound | solubility [1] | solubility [2] | also measured
6 | CCN(CC)CCNC(=O)c1c(C)[nH]c(/C=C2\C(=O)Nc3ccc(N)cc32)c1C [5-Amino Sunitinib, 5-[5-Amino-2-oxo-1,2-dihydro-indol-(3Z)-ylidenemethyl]-2,4-dimethyl-1H-pyrrole-3-carboxylic acid (2-diethylamino-ethyl)-amide, reference compound] | > 50000 µg/mL | < 1000 µg/mL | 
7 | CCN[C@H]1CN(CCCOC)S(=O)(=O)c2sc(S(N)(=O)=O)cc21 [Brinzolamide, reference compound] | > 50000 µg/mL | < 1000 µg/mL | Solubility DCM (Table 3B, DCM): <7500 µg/mL; Solubility DMSO (Table 3B, DMSO): >50000 µg/mL; Solubility Water (Table 3B, water, drug added to 50 mg/mL): <1000 µg/mL; solubility [3]: < 7500 µg/mL
8 | CCCCCCCCCCCCCCCCCC(=O)O[C@@H](C)C(=O)O[C@@H](C)C(=O)O[C@@H](C)C(=O)O[C@@H](C)C(=O)NS(=O)(=O)c1cc2c(s1)S(=O)(=O)C(C)CC2NCC (stereo partly drawn) [Compound 12-3, Octadecanoic acid (S)-1-((S)-1-{(S)-1-[(S)-2-(4-ethylamino-6-methyl-7,7-dioxo-4,5,6,7-tetrahydro-7λ*6*-thieno[2,3-b]thiopyran-2-sulfonylamino)-1-methyl-2-oxo-ethoxycarbonyl]-ethoxycarbonyl}-ethoxycarbonyl)-ethyl ester] | > 50000 µg/mL | < 100 µg/mL | solubility [3]: > 50000 µg/mL
9 | CCCCCCCCCCCCCCCCCC(=O)O[C@@H](C)C(=O)O[C@@H](C)C(=O)O[C@@H](C)C(=O)O[C@@H](C)C(=O)NS(=O)(=O)c1cc2c(s1)S(=O)(=O)N(CCCOC)CC2NCC (stereo partly drawn) [Compound 15-2, Octadecanoic acid (S)-1-[(S)-1-((S)-1-{(S)-2-[4-ethylamino-2-(3-methoxy-propyl)-1,1-dioxo-1,2,3,4-tetrahydro-1λ*6*-thieno[3,2-e][1,2]thiazine-6-sulfonylamino]-1-methyl-2-oxo-ethoxycarbonyl}-ethoxycarbonyl)-ethoxycarbonyl]-ethyl ester] | > 50000 µg/mL | < 1000 µg/mL | 
10 | CC(=O)O[C@@H](C)C(=O)O[C@@H](C)C(=O)N1CCN=C1Nc1ccc2nccnc2c1Br [Compound 25-2, (S)-2-Acetoxy-propionic acid (S)-2-[2-(5-bromo-quinoxalin-6-ylamino)-4,5-dihydro-imidazol-1-yl]-1-methyl-2-oxo-ethyl ester] | > 50000 µg/mL | < 1000 µg/mL | 
11 | CC(=O)O[C@@H](C)C(=O)O[C@@H](C)C(=O)O[C@@H](C)C(=O)N1CCN=C1Nc1ccc2nccnc2c1Br [Compound 26-2, (S)-2-((S)-2-Acetoxy-propionyloxy)-propionic acid (S)-2-[2-(5-bromo-quinoxalin-6-ylamino)-4,5-dihydro-imidazol-1-yl]-1-methyl-2-oxo-ethyl ester] | > 50000 µg/mL | < 1000 µg/mL | 
12 | CC(=O)O[C@@H](C)C(=O)O[C@@H](C)C(=O)O[C@@H](C)C(=O)O[C@@H](C)C(=O)N1CCN=C1Nc1ccc2nccnc2c1Br [Compound 27-2, (S)-2-[(S)-2-((S)-2-Acetoxy-propionyloxy)-propionyloxy]-propionic acid (S)-2-[2-(5-bromo-quinoxalin-6-ylamino)-4,5-dihydro-imidazol-1-yl]-1-methyl-2-oxo-ethyl ester] | > 50000 µg/mL | < 1000 µg/mL | 
13 | CCCCCCCCCCCCCCCCCC(=O)O[C@@H](C)C(=O)O[C@@H](C)C(=O)O[C@@H](C)C(=O)O[C@@H](C)C(=O)O[C@@H](C)C(=O)O[C@@H](C)C(=O)O[C@@H](CNC(C)(C)C)COc1nsnc1N1CCOCC1 [Compound 42-2, Octadecanoic acid (S)-1-((S)-1-{(S)-1-[(S)-1-((S)-1-{(S)-1-[(S)-1-(tert-butylamino-methyl)-2-(4-morpholin-4-yl-[1,2,5]thiadiazol-3-yloxy)-ethoxycarbonyl]-ethoxycarbonyl}-ethoxycarbonyl)-ethoxycarbonyl]-ethoxycarbonyl}-ethoxycarbonyl)-ethyl ester maleate] | > 50000 µg/mL | < 1000 µg/mL | 
14 | CCCCCCCCCCCCCCCCCC(=O)O[C@@H](C)C(=O)O[C@@H](C)C(=O)O[C@@H](C)C(=O)O[C@@H](C)C(=O)O[C@@H](C)C(=O)O[C@@H](C)C(=O)O[C@@H](CNC(C)(C)C)COc1nsnc1N1CCOCC1.Cl [Compound 43-1, Octadecanoic acid (5)-1-((S)-1-{(S)-1-[(S)-1-((S)-1-{(S)-1-[(S)-1-(tert-butylamino-methyl)-2-(4-morpholin-4-yl-[1,2,5]thiadiazol-3-yloxy)-ethoxycarbonyl]-ethoxycarbonyl}-ethoxycarbonyl)-ethoxycarbonyl]-ethoxycarbonyl}-ethoxycarbonyl)-ethyl ester hydrochloride] |  |  | Solubility DMSO (Table 3A, DMSO): >50000 µg/mL; Solubility Water (Table 3A, water, drug added to 50 mg/mL): 6250 µg/mL; aqueous solubility (aqueous solution): 6250 µg/mL
15 | CC/C=C\C/C=C\C/C=C\C/C=C\C/C=C\C/C=C\CCC(=O)O[C@@H](CNC(C)(C)C)COc1nsnc1N1CCOCC1.O=C(O)/C=C\C(=O)O [Compound 53-3, (4Z,7Z,10Z,13Z,16Z,19Z)-Docosa-4,7,10,13,16,19-hexaenoic acid (S)-1-(tert-butylamino-methyl)-2-(4-morpholin-4-yl-[1,2,5]thiadiazol-3-yloxy)-ethylester maleate] |  |  | solubility [4]: > 100000 µg/mL; solubility [5]: < 1000 µg/mL
16 | CCCCCCCCCCCCCCCCCC(=O)O[C@@H](C)C(=O)O[C@@H](C)C(=O)O[C@H](COc1nsnc1N1CCOCC1)CN(C(C)=O)C(C)(C)C [Compound 66-1, N-Acyl-Timolol-PLA (n = 2) Stearate] |  |  | solubility [4]: > 100000 µg/mL; solubility [5]: < 1000 µg/mL
17 | CCCCCCCCCCCCCCCCCC(=O)O[C@@H](C)C(=O)O[C@@H](C)C(=O)O[C@@H](C)C(=O)O[C@@H](C)C(=O)O[C@H](COc1nsnc1N1CCOCC1)CN(C(C)=O)C(C)(C)C [Compound 67-1, N-Acyl-Timolol-PLA (n = 4) Stearate] |  |  | solubility [4]: 70000 µg/mL (≈ 76.7 mM); solubility [5]: < 1000 µg/mL
